Laboratory results from patent publication US10173991B2, “Sulfone amide linked benzothiazole inhibitors of endothelial lipase” (BRISTOL-MYERS SQUIBB COMPANY, priority 2014, dated 2019).
Where two headings read alike, the source gives them in different places.

Target: Endothelial lipase (EL) (Homo sapiens (Human), UniProt Q9Y5X9)
Assay: Endothelial lipase (EL) enzymatic assay with fluorescent substrate A10070 in DMPG vesicles
Format: biochemical
Outline: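 Compounds were preincubated with enzyme for 30 min at 37° C before FRET-substrate vesicles (A10070 in DMPG, 0.11 mole fraction) were added. Reaction rates were obtained from the 300–900 sec slope of fluorescence at 490/530 nm.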

[1] = EL from conditioned media of HT-1080 cells, 30 min preincubation at 37° C.

Endothelial lipase (EL), sequence (Q9Y5X9 21-500): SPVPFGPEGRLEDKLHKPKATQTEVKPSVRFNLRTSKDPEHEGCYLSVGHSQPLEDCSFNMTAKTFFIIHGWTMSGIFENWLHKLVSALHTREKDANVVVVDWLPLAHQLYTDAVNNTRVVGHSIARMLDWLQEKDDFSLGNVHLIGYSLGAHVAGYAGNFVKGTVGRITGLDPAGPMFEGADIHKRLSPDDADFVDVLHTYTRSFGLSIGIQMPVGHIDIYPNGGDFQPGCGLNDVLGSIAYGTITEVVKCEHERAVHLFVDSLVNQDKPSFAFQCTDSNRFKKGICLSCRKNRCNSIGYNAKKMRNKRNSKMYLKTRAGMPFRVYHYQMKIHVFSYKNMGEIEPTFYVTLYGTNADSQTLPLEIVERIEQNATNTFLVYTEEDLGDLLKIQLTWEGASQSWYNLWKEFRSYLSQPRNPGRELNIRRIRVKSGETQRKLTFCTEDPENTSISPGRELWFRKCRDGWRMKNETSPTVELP

Compound: CN(C)S(=O)(=O)C(C(=O)NCC(=O)NC1CC1)c1nc2c(F)cc(-c3cccc(NC(=O)OCc4ccccc4)c3)cc2s1 (stereo not drawn) [Example 502, benzyl N-{3-[2-({[(cyclopropyl-carbamoyl)methyl]carbamoyl} (dimethyl-sulfamoyl)methyl)-4-fluoro-1,3-benzothiazol-6-yl]phenyl} carbamate]
- IC50: 2 nM

Compound: CN(C)S(=O)(=O)C(C(=O)NCC(=O)NC1CC1)c1nc2c(F)cc(-c3ccc4cnn(C)c4c3)cc2s1 (stereo not drawn) [Example 494, N-[(cyclopropyl-carbamoyl)methyl]-2-(dimethyl-sulfamoyl)-2-[4-fluoro-6-(1-methyl-1H-indazol-6-yl)-1,3-benzothiazol-2-yl] acetamide]
- IC50: 44 nM

Compound: COC(=O)Nc1ccccc1-c1cc2sc(C(C(=O)NCC(=O)NC3CC3)S(C)(=O)=O)nc2cc1F (stereo not drawn) [Example 532, Methyl N-{2-[2({[(cyclopropylcarbamoyl)methyl]carbamoyl}(methanesulfonyl)methyl)-5-fluoro-1,3-benzothiazol-6-yl]phenyl}carbamate]
- IC50 [1]: 110 nM

Compound: O=C(CNC(=O)C(c1nc2cc(F)c(-c3cncnc3)cc2s1)S(=O)(=O)c1ccc(F)c(F)c1)NC1CC1 (stereo not drawn) [Example 445, N-[(cyclopropyl-carbamoyl)methyl]-2-(3,4-difluorobenzene-sulfonyl)-2-[5-fluoro-6-(pyrimidin-5-yl)-1,3-benzothiazol-2-yl]acetamide]
- IC50: 59 nM

Compound: COCCS(=O)(=O)C(C(=O)NCC(=O)NC1CC1)c1nc2ccc(-c3ccc(C(=O)N4CC(F)(F)C4)cc3)cc2s1 (stereo not drawn) [Example 406, N-[(cyclopropyl-carbamoyl)methyl]-2-{6-[4-(3,3-difluoroazetidine-1-carbonyl)phenyl]-1,3-benzothiazol-2-yl}-2-(2-methoxyethane-sulfonyl)acetamide]
- IC50: 13 nM

Compound: Cc1ccc(-c2cc3sc(C(C(=O)NCC(=O)NC4CC4)S(=O)(=O)C(C)C)nc3cc2C)cn1 (stereo not drawn) [Example 252, N-[(cyclopropyl-carbamoyl)methyl]-2-[5-methyl-6-(6-methylpyridin-3-yl)-1,3-benzothiazol-2-yl]-2-(propane-2-sulfonyl)acetamide]
- IC50: 15 nM

Compound: CC(C)S(=O)(=O)C(C(=O)NCC(=O)NC1CC1)c1nc2cc(F)c(-c3cccc(NC(=O)OCc4ccccc4)c3)cc2s1 (stereo not drawn) [Example 557, benzyl N-{3-[2-({[(cyclopropyl-carbamoyl)methyl]carbamoyl} (propane-2-sulfonyl)methyl)-5-fluoro-1,3-benzothiazol-6-yl]phenyl}carbamate]
- IC50: 7 nM

Compound: COc1ccc(-c2ccc3nc(C(C(=O)NCC(=O)NC4CC4)S(=O)(=O)c4ccc(F)cc4)sc3c2)cn1 (stereo not drawn) [Example 456, N-[(cyclopropyl-carbamoyl)methyl]-2-(4-fluorobenzene-sulfonyl)-2-[6-(6-methoxypyridin-3-yl)-1,3-benzothiazol-2-yl]acetamide]
- IC50: 109 nM

Compound: COCCS(=O)(=O)C(C(=O)NCC(=O)NC1CC1)c1nc2cc(-c3ccncc3F)ccc2s1 (stereo not drawn) [Example 73, N-[(cyclopropyl-carbamoyl)methyl]-2-[5-(3-fluoropyridin-4-yl)-1,3-benzothiazol-2-yl]-2-(2-methoxyethane-sulfonyl) acetamide]
- IC50: 28 nM

Compound: Cc1ncc(-c2ccc3nc(C(C(=O)NCC(=O)NC4CC4)S(=O)(=O)c4ccc(F)cc4)sc3c2)cn1 (stereo not drawn) [Example 452, N-[(cyclopropyl-carbamoyl)methyl]-2-(4-fluorobenzene-sulfonyl)-2-[6-(2-methylpyrimidin-5-yl)-1,3-benzothiazol-2-yl]acetamide]
- IC50: 39 nM

Compound: CC(C)S(=O)(=O)C(C(=O)NCC(=O)NC1CC1)c1nc2cc(F)c(-c3ccc(NC(N)=O)cc3)cc2s1 (stereo not drawn) [Example 5, 2-{6-[4-(carbamoyl-amino)phenyl]-5-fluoro-1,3-benzothiazol-2-yl}-N-[(cyclopropyl-carbamoyl)methyl]-2-(propane-2-sulfonyl) acetamide]
- IC50: 9 nM

Compound: COCCS(=O)(=O)C(C(=O)NCC(=O)NC1CC1)c1nc2cc(-c3ccc4c(c3)CC(=O)N4)c(F)cc2s1 (stereo not drawn) [Example 349, N-[(cyclopropyl-carbamoyl)methyl]-2-[6-fluoro-5-(2-oxo-2,3-dihydro-1H-indol-5-yl)-1,3-benzothiazol-2-yl]-2-(2-methoxyethane-sulfonyl)acetamide]
- IC50: 42 nM

Compound: Cn1ccc2cc(-c3cc4sc(C(C(=O)NCC(=O)NC5CC5)S(C)(=O)=O)nc4cc3F)ccc2c1=O (stereo not drawn) [Example 193, N-[(cyclopropyl-carbamoyl)methyl]-2-[5-fluoro-6-(2-methyl-1-oxo-1,2-dihydro-isoquinolin-6-yl)-1,3-benzothiazol-2-yl]-2-methanesulfonyl-acetamide]
- IC50: 5 nM

Compound: COCCS(=O)(=O)C(C(=O)NCC(=O)NC1CC1)c1nc2cc(F)c(-c3ccc4c(c3)OCC(=O)N4)cc2s1 (stereo not drawn) [Example 417, N-[(cyclopropyl-carbamoyl)methyl]-2-[5-fluoro-6-(3-oxo-3,4-dihydro-2H-1,4-benzoxazin-7-yl)-1,3-benzothiazol-2-yl]-2-(2-methoxyethane-sulfonyl)acetamide]
- IC50: 35 nM

Compound: CS(=O)(=O)C(C(=O)NCC(=O)NC1CC1)c1nc2ccc(-c3ccc(=O)n(-c4ccccc4)c3)cc2s1 (stereo not drawn) [Example 583, N-[(cyclopropyl-carbamoyl)methyl]-2-methanesulfonyl-2-[6-(6-oxo-1-phenyl-1,6-dihydropyridin-3-yl)-1,3-benzothiazol-2-yl]acetamide]
- IC50: 20 nM

Compound: COCCS(=O)(=O)C(C(=O)NCC(=O)NC1CC1)c1nc2cc(-c3cccc(C(=O)NCC(F)(F)F)c3)ccc2s1 (stereo not drawn) [Example 394, 3-[2-({[(cyclopropyl-carbamoyl)methyl]carbamoyl}(2-methoxyethane-sulfonyl)methyl)-1,3-benzothiazol-5-yl]-N-(2,2,2-trifluoroethyl) benzamide]
- IC50: 4 nM

Compound: COCCS(=O)(=O)C(C(=O)NCC(=O)NC1CC1)c1nc2cc(F)c(-c3ccc(NC(=O)OCc4nccs4)cc3)cc2s1 (stereo not drawn) [Example 524, 1,3-thiazol-2-ylmethyl N-{4-[2-({[(cyclopropyl-carbamoyl)methyl]carbamoyl}(2-methoxyethane-sulfonyl)methyl)-5-fluoro-1,3-benzothiazol-6-yl]phenyl} carbamate]
- IC50: 13 nM

Compound: O=C(CNC(=O)C(c1nc2cc(F)c(-c3ccc(NC(=O)OCc4ccccc4)cc3)cc2s1)S(=O)(=O)CCCC(F)(F)F)NC1CC1 (stereo not drawn) [Example 46, benzyl N-{4-[2-({[(cyclopropyl-carbamoyl)methyl]carbamoyl}(4,4,4-trifluorobutane-sulfonyl)methyl)-5-fluoro-1,3-benzothiazol-6-yl]phenyl}carbamate]
- IC50: 2 nM

Compound: COCCS(=O)(=O)C(C(=O)NCC(=O)NC1CC1)c1nc2cc(-c3ccc(Cl)cn3)ccc2s1 (stereo not drawn) [Example 83, 2-[5-(5-chloropyridin-2-yl)-1,3-benzothiazol-2-yl]-N-[(cyclopropyl-carbamoyl)methyl]-2-(2-methoxyethane-sulfonyl)acetamide]
- IC50: 71 nM

Compound: COCCNC(=O)c1ccc(-c2ccc3nc(C(C(=O)NCC(=O)NC4CC4)S(=O)(=O)N4CCOCC4)sc3c2)cc1 (stereo not drawn) [Example 480, 4-[2-({[(Cyclopropylcarbamoyl)methyl]carbamoyl}(morpholine-4-sulfonyl)methyl)-1,3-benzothiazol-6-yl]-N-(2-methoxyethyl)benzamide]
- IC50 [1]: 4 nM

Compound: COCCS(=O)(=O)C(C(=O)NCC(=O)NC1CC1)c1nc2cc(-c3ccc(-n4cnnn4)cc3)c(F)cc2s1 (stereo not drawn) [Example 132, N-[(cyclopropyl-carbamoyl)methyl]-2-{6-fluoro-5-[4-(1H-1,2,3,4-tetrazol-1-yl)phenyl]-1,3-benzothiazol-2-yl}-2-(2-methoxyethane-sulfonyl) acetamide]
- IC50: 52 nM

Compound: Cc1cc(-c2cc3sc(C(C(=O)NCC(=O)NC4CC4)S(=O)(=O)C(C)C)nc3cc2F)cnn1 (stereo not drawn) [Example 240, N-[(cyclopropylcarbamoyl)methyl]-2-[5-fluoro-6-(6-methylpyridazin-4-yl)-1,3-benzothiazol-2-yl]-2-(propane-2-sulfonyl) acetamide]
- IC50: 192 nM

Compound: COCCS(=O)(=O)C(C(=O)NCC(=O)NC1CC1)c1nc2cc(F)c(-c3ccc4c(c3)CNC4=O)cc2s1 (stereo not drawn) [Example 150, N-[(cyclopropyl-carbamoyl)methyl]-2-[5-fluoro-6-(1-oxo-2,3-dihydro-1H-isoindol-5-yl)-1,3-benzothiazol-2-yl]-2-(2-methoxyethane-sulfonyl) acetamide]
- IC50: 2 nM

Compound: COCCNC(=O)CNC(=O)C(c1nc2ccc(-c3ccc(F)nc3)cc2s1)S(=O)(=O)CCOC (stereo not drawn) [Example 379, 2-[6-(6-fluoropyridin-3-yl)-1,3-benzothiazol-2-yl]-2-(2-methoxyethane-sulfonyl)-N-{[(2-methoxyethyl)carbamoyl]methyl} acetamide]
- IC50: 108 nM

Compound: O=C(CNC(=O)C(c1nc2cc(F)c(-c3ccc(NC(=O)OCc4ccccc4)nc3)cc2s1)S(=O)(=O)C1CC1)NC1CC1 (stereo not drawn) [Example 556, benzyl N-(5-{2-[(cyclopropane-sulfonyl) ({[(cyclopropyl-carbamoyl)methyl]carbamoyl)methyl]-5-fluoro-1,3-benzothiazol-6-yl}pyridin-2-yl) carbamate]
- IC50: 15 nM

Compound: O=C(CNC(=O)C(c1nc2cc(F)c(-c3ccn(Cc4ccccc4)c(=O)c3)cc2s1)S(=O)(=O)CCC(F)(F)F)NC1CC1 (stereo not drawn) [Example 136, 2-[6-(1-benzyl-2-oxo-1,2-dihydropyridin-4-yl)-5-fluoro-1,3-benzothiazol-2-yl]-N-[(cyclopropyl-carbamoyl)methyl]-2-(3,3,3-trifluoropropane-sulfonyl) acetamide]
- IC50: 6 nM

Compound: O=C(CNC(=O)C(c1nc2cc(F)c(-c3ccc(NC(=O)OCc4ccccc4)cc3)cc2s1)S(=O)(=O)CCN1CCOCC1)NC1CC1 (stereo not drawn) [Example 423, benzyl N-{4-[2-({[(cyclopropyl-carbamoyl)methyl]carbamoyl}[2-(morpholin-4-yl)ethanesulfonyl]methyl)-5-fluoro-1,3-benzothiazol-6-yl]phenyl} carbamate]
- IC50: 1 nM
